Source: US7799809B2, “Carboxamide compounds and their use as calpain inhibitors” (Abbott GmbH & Co. KG, priority 2006, dated 2010)

Assays:
Format in all cases: biochemical
[1] = target: T1, cathepsin B (Homo sapiens, UniProt P07858); test: Cathepsin B enzyme inhibition in vitro (kinetic fluorescence assay); details: cathepsin B isolated from human liver vs calpain I
T1 construct: cathepsin B—isolated from human liver (Calbiochem #219362); purchased Calbiochem 219362; host or cells: human liver (tissue-derived)
Summary of the method: (§1)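 Kinetic fluorescence (ex 390/em 460 nm) at room temperature in 50 mM MES, 2 mM EDTA, 0.05% Brij 35, 2.5 mM L-cysteine, pH 6.0. Cathepsin B (liver, 0.25 nM) with 100 μM Z-Phe-Arg-AMC; cathepsin L (liver, 1 nM) with 2 μM Z-Phe-Arg-AMC; recombinant E. coli cathepsin S (0.5 nM) with 20 μM Z-Val-Val-Arg-AMC. Ki via Cheng-Prusoff.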

[2] = target: T2, cathepsin L (Homo sapiens, UniProt P07711); test: Cathepsin L enzyme inhibition in vitro (kinetic fluorescence assay); details: cathepsin L isolated from human liver vs calpain I
T2 construct: cathepsin L—isolated from human liver (Calbiochem #219402); purchased Calbiochem 219402; host or cells: human liver (tissue-derived)
Summary of the method: as §1

[3] = target: T3, cathepsin K (Homo sapiens, UniProt P43235); test: Cathepsin K enzyme inhibition in vitro (kinetic fluorescence assay); details: cathepsin K activated from recombinant human procathepsin K vs calpain I
T3 construct: purchased Calbiochem 342001; host or cells: E. coli
T3 sequence (P43235 115-329): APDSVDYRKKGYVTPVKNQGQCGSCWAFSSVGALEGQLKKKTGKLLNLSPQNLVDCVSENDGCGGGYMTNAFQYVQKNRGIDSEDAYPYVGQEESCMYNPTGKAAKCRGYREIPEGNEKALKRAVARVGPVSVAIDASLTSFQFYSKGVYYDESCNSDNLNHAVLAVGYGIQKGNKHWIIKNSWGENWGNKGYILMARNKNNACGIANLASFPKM

[4] = target: T4, cathepsin S (Homo sapiens, UniProt P25774); test: Cathepsin S enzyme inhibition in vitro (kinetic fluorescence assay); details: recombinant human cathepsin S vs calpain I
T4 construct: purchased Calbiochem 219343; host or cells: E. coli
Summary of the method: as §1

T2 sequence (P07711 114-333): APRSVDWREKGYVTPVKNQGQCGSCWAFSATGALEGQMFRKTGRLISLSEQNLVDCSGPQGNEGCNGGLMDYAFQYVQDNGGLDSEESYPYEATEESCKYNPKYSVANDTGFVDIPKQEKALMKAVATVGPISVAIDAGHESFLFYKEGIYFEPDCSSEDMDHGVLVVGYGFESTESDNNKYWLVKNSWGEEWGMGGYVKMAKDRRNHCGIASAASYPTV
T4 sequence (P25774 115-331): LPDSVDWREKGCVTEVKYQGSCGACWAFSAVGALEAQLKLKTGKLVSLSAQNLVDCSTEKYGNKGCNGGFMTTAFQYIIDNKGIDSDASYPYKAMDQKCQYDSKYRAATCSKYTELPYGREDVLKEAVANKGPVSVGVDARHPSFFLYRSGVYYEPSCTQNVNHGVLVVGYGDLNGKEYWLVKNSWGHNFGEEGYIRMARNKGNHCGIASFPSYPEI

NC(=O)C(=O)C(Cc1ccccc1)NC(=O)c1cccnc1-n1ccc(-c2ccc(N3CCOCC3)cc2Cl)n1 (centres unmarked) [Example 99, N-[3-Amino-2,3-dioxo-1-(phenylmethyl)propyl]-2-[3-(2-chloro-4-morpholin-4-ylphenyl)-1H-pyrazol-1-yl]pyridine-3-carboxamide]
Sel cat. B: Ki(cathepsin B)/Ki(calpain) ratio [1]: ++ (++ means a Ki(cathepsin B)/Ki(calpain) ratio of ≧30) | Sel cat. L: Ki(cathepsin L)/Ki(calpain) ratio [2]: ++ (++ means a Ki(cathepsin L)/Ki(calpain) ratio of ≧50) | Sel cat. K: Ki(cathepsin K)/Ki(calpain) ratio [3]: ++ (++ means a Ki(cathepsin K)/Ki(calpain) ratio of ≧30) | Sel cat. S: Ki(cathepsin S)/Ki(calpain) ratio [4]: ++ (++ means a Ki(cathepsin S)/Ki(calpain) ratio of ≧100)

NC(=O)C(=O)C(Cc1ccccc1)NC(=O)c1cccnc1-n1cc2c(n1)-c1ccccc1OC2 (centres unmarked) [Example 100, N-[3-Amino-2,3-dioxo-1-(phenylmethyl)propyl]-2-chromeno[4,3-c]pyrazol-2(4H)-ylpyridine-3-carboxamide]
Sel cat. B: Ki(cathepsin B)/Ki(calpain) ratio [1]: + (+ means 10≦Ki(cathepsin B)/Ki(calpain)<30) | Sel cat. L: Ki(cathepsin L)/Ki(calpain) ratio [2]: ++ (++ means a Ki(cathepsin L)/Ki(calpain) ratio of ≧50) | Sel cat. K: Ki(cathepsin K)/Ki(calpain) ratio [3]: ++ (++ means a Ki(cathepsin K)/Ki(calpain) ratio of ≧30) | Sel cat. S: Ki(cathepsin S)/Ki(calpain) ratio [4]: ++ (++ means a Ki(cathepsin S)/Ki(calpain) ratio of ≧100)

NC(=O)C(=O)C(Cc1ccccc1)NC(=O)c1cccnc1-n1ccc(-c2ccc(N3CCOCC3)cc2F)n1 (centres unmarked) [Example 102, N-[3-Amino-2,3-dioxo-1-(phenylmethyl)propyl]-2-[3-(2-fluoro-4-morpholin-4-ylphenyl)-1H-pyrazol-1-yl]pyridine-3-carboxamide]
Sel cat. B: Ki(cathepsin B)/Ki(calpain) ratio [1]: + (+ means 10≦Ki(cathepsin B)/Ki(calpain)<30) | Sel cat. L: Ki(cathepsin L)/Ki(calpain) ratio [2]: ++ (++ means a Ki(cathepsin L)/Ki(calpain) ratio of ≧50) | Sel cat. K: Ki(cathepsin K)/Ki(calpain) ratio [3]: ++ (++ means a Ki(cathepsin K)/Ki(calpain) ratio of ≧30) | Sel cat. S: Ki(cathepsin S)/Ki(calpain) ratio [4]: ++ (++ means a Ki(cathepsin S)/Ki(calpain) ratio of ≧100)

NC(=O)C(=O)C(Cc1ccccc1)NC(=O)c1cccnc1-n1ccc(-c2ccc(Cl)s2)n1 (centres unmarked) [Example 103, N-[3-Amino-2,3-dioxo-1-(phenylmethyl)propyl]-2-[3-(5-chloro-2-thienyl)-1H-pyrazol-1-yl]pyridine-3-carboxamide]
Sel cat. B: Ki(cathepsin B)/Ki(calpain) ratio [1]: + (+ means 10≦Ki(cathepsin B)/Ki(calpain)<30) | Sel cat. L: Ki(cathepsin L)/Ki(calpain) ratio [2]: ++ (++ means a Ki(cathepsin L)/Ki(calpain) ratio of ≧50) | Sel cat. K: Ki(cathepsin K)/Ki(calpain) ratio [3]: + (+ means 10≦Ki(cathepsin K)/Ki(calpain)<30) | Sel cat. S: Ki(cathepsin S)/Ki(calpain) ratio [4]: ++ (++ means a Ki(cathepsin S)/Ki(calpain) ratio of ≧100)

NC(=O)C(=O)[C@H](Cc1ccccc1)NC(=O)c1cccnc1-n1ccc(-c2ccccc2)n1 [Example 107, N-[(1S)-3-Amino-2,3-dioxo-1-(phenylmethyl)propyl]-2-(3-phenyl-1H-pyrazol-1-yl)pyridine-3-carboxamide]
Sel cat. B: Ki(cathepsin B)/Ki(calpain) ratio [1]: + (+ means 10≦Ki(cathepsin B)/Ki(calpain)<30) | Sel cat. L: Ki(cathepsin L)/Ki(calpain) ratio [2]: ++ (++ means a Ki(cathepsin L)/Ki(calpain) ratio of ≧50) | Sel cat. K: Ki(cathepsin K)/Ki(calpain) ratio [3]: + (+ means 10≦Ki(cathepsin K)/Ki(calpain)<30) | Sel cat. S: Ki(cathepsin S)/Ki(calpain) ratio [4]: ++ (++ means a Ki(cathepsin S)/Ki(calpain) ratio of ≧100)

NC(=O)C(=O)C(Cc1ccccc1)NC(=O)c1cccnc1-n1ccc(-c2sccc2Cl)n1 (centres unmarked) [Example 109, N-[3-Amino-2,3-dioxo-1-(phenylmethyl)propyl]-2-[3-(3-chloro-2-thienyl)-1H-pyrazol-1-yl]pyridine-3-carboxamide]
Sel cat. B: Ki(cathepsin B)/Ki(calpain) ratio [1]: ++ (++ means a Ki(cathepsin B)/Ki(calpain) ratio of ≧30) | Sel cat. L: Ki(cathepsin L)/Ki(calpain) ratio [2]: ++ (++ means a Ki(cathepsin L)/Ki(calpain) ratio of ≧50) | Sel cat. K: Ki(cathepsin K)/Ki(calpain) ratio [3]: ++ (++ means a Ki(cathepsin K)/Ki(calpain) ratio of ≧30) | Sel cat. S: Ki(cathepsin S)/Ki(calpain) ratio [4]: ++ (++ means a Ki(cathepsin S)/Ki(calpain) ratio of ≧100)

NC(=O)C(=O)C(Cc1ccccc1)NC(=O)c1cccnc1-n1ccc(-c2cccc3ccccc23)n1 (centres unmarked) [Example 110, N-[3-Amino-2,3-dioxo-1-(phenylmethyl)propyl]-2-(3-naphthalen-1-yl-1H-pyrazol-1-yl)pyridine-3-carboxamide]
Sel cat. B: Ki(cathepsin B)/Ki(calpain) ratio [1]: ++ (++ means a Ki(cathepsin B)/Ki(calpain) ratio of ≧30) | Sel cat. L: Ki(cathepsin L)/Ki(calpain) ratio [2]: ++ (++ means a Ki(cathepsin L)/Ki(calpain) ratio of ≧50) | Sel cat. K: Ki(cathepsin K)/Ki(calpain) ratio [3]: ++ (++ means a Ki(cathepsin K)/Ki(calpain) ratio of ≧30) | Sel cat. S: Ki(cathepsin S)/Ki(calpain) ratio [4]: ++ (++ means a Ki(cathepsin S)/Ki(calpain) ratio of ≧100)

COc1ccc(CC(NC(=O)c2cccnc2-n2ccc(-c3ccc(F)cc3Cl)n2)C(=O)C(N)=O)cc1 (centres unmarked) [Example 111, N-(3-Amino-1-{[4-(methyloxy)phenyl]methyl}-2,3-dioxopropyl)-2-[3-(2-chloro-4-fluorophenyl)-1H-pyrazol-1-yl]pyridine-3-carboxamide]
Sel cat. B: Ki(cathepsin B)/Ki(calpain) ratio [1]: ++ (++ means a Ki(cathepsin B)/Ki(calpain) ratio of ≧30) | Sel cat. L: Ki(cathepsin L)/Ki(calpain) ratio [2]: ++ (++ means a Ki(cathepsin L)/Ki(calpain) ratio of ≧50) | Sel cat. K: Ki(cathepsin K)/Ki(calpain) ratio [3]: ++ (++ means a Ki(cathepsin K)/Ki(calpain) ratio of ≧30) | Sel cat. S: Ki(cathepsin S)/Ki(calpain) ratio [4]: ++ (++ means a Ki(cathepsin S)/Ki(calpain) ratio of ≧100)

NC(=O)C(=O)C(Cc1ccccc1)NC(=O)c1cccnc1-n1ccc(-c2cc(Cl)ccc2Cl)n1 (centres unmarked) [Example 112, N-[3-Amino-2,3-dioxo-1-(phenylmethyl)propyl]-2-[3-(2,5-dichlorophenyl)-1H-pyrazol-1-yl]pyridine-3-carboxamide]
Sel cat. B: Ki(cathepsin B)/Ki(calpain) ratio [1]: ++ (++ means a Ki(cathepsin B)/Ki(calpain) ratio of ≧30) | Sel cat. L: Ki(cathepsin L)/Ki(calpain) ratio [2]: ++ (++ means a Ki(cathepsin L)/Ki(calpain) ratio of ≧50) | Sel cat. K: Ki(cathepsin K)/Ki(calpain) ratio [3]: ++ (++ means a Ki(cathepsin K)/Ki(calpain) ratio of ≧30) | Sel cat. S: Ki(cathepsin S)/Ki(calpain) ratio [4]: ++ (++ means a Ki(cathepsin S)/Ki(calpain) ratio of ≧100)

NC(=O)C(=O)C(Cc1ccc(F)cc1)NC(=O)c1cccnc1-n1ccc(-c2ccc(Cl)cc2Cl)n1 (centres unmarked) [Example 114, N-{-3-Amino-1-[(4-fluorophenyl)methyl]-2,3-dioxopropyl}-2-[3-(2,4-dichlorophenyl)-1H-pyrazol-1-yl]pyridine-3-carboxamide]
Sel cat. B: Ki(cathepsin B)/Ki(calpain) ratio [1]: ++ (++ means a Ki(cathepsin B)/Ki(calpain) ratio of ≧30) | Sel cat. L: Ki(cathepsin L)/Ki(calpain) ratio [2]: ++ (++ means a Ki(cathepsin L)/Ki(calpain) ratio of ≧50) | Sel cat. K: Ki(cathepsin K)/Ki(calpain) ratio [3]: ++ (++ means a Ki(cathepsin K)/Ki(calpain) ratio of ≧30) | Sel cat. S: Ki(cathepsin S)/Ki(calpain) ratio [4]: ++ (++ means a Ki(cathepsin S)/Ki(calpain) ratio of ≧100)

NC(=O)C(=O)C(Cc1ccccc1)NC(=O)c1cccnc1-n1ccc(-c2cccc(Cl)c2Cl)n1 (centres unmarked) [Example 115, N-[3-Amino-2,3-dioxo-1-(phenylmethyl)propyl]-2-[3-(2,3-dichlorophenyl)-1H-pyrazol-1-yl]pyridine-3-carboxamide]
Sel cat. B: Ki(cathepsin B)/Ki(calpain) ratio [1]: ++ (++ means a Ki(cathepsin B)/Ki(calpain) ratio of ≧30) | Sel cat. L: Ki(cathepsin L)/Ki(calpain) ratio [2]: ++ (++ means a Ki(cathepsin L)/Ki(calpain) ratio of ≧50) | Sel cat. K: Ki(cathepsin K)/Ki(calpain) ratio [3]: ++ (++ means a Ki(cathepsin K)/Ki(calpain) ratio of ≧30) | Sel cat. S: Ki(cathepsin S)/Ki(calpain) ratio [4]: ++ (++ means a Ki(cathepsin S)/Ki(calpain) ratio of ≧100)

NC(=O)C(=O)C(Cc1ccccc1)NC(=O)c1cccnc1-n1ccc(-c2c(F)cc(F)cc2F)n1 (centres unmarked) [Example 116, N-[3-Amino-2,3-dioxo-1-(phenylmethyl)propyl]-2-[3-(2,4,6-trifluorophenyl)-1H-pyrazol-1-yl]pyridine-3-carboxamide]
Sel cat. B: Ki(cathepsin B)/Ki(calpain) ratio [1]: ++ (++ means a Ki(cathepsin B)/Ki(calpain) ratio of ≧30) | Sel cat. L: Ki(cathepsin L)/Ki(calpain) ratio [2]: ++ (++ means a Ki(cathepsin L)/Ki(calpain) ratio of ≧50) | Sel cat. K: Ki(cathepsin K)/Ki(calpain) ratio [3]: + (+ means 10≦Ki(cathepsin K)/Ki(calpain)<30) | Sel cat. S: Ki(cathepsin S)/Ki(calpain) ratio [4]: ++ (++ means a Ki(cathepsin S)/Ki(calpain) ratio of ≧100)

COc1ccc(-c2ccn(-c3ncccc3C(=O)NC(Cc3ccccc3)C(=O)C(N)=O)n2)c(OC)c1 (centres unmarked) [Example 117, N-[3-Amino-2,3-dioxo-1-(phenylmethyl)propyl]-2-{3-[2,4-bis(methyloxy)phenyl]-1H-pyrazol-1-yl}pyridine-3-carboxamide]
Sel cat. B: Ki(cathepsin B)/Ki(calpain) ratio [1]: ++ (++ means a Ki(cathepsin B)/Ki(calpain) ratio of ≧30) | Sel cat. L: Ki(cathepsin L)/Ki(calpain) ratio [2]: ++ (++ means a Ki(cathepsin L)/Ki(calpain) ratio of ≧50) | Sel cat. K: Ki(cathepsin K)/Ki(calpain) ratio [3]: ++ (++ means a Ki(cathepsin K)/Ki(calpain) ratio of ≧30) | Sel cat. S: Ki(cathepsin S)/Ki(calpain) ratio [4]: ++ (++ means a Ki(cathepsin S)/Ki(calpain) ratio of ≧100)

NC(=O)C(=O)C(Cc1ccccc1)NC(=O)c1cccnc1-n1ccc(-c2ccc3c(c2)OC(F)(F)O3)n1 (centres unmarked) [Example 118, N-[3-Amino-2,3-dioxo-1-(phenylmethyl)propyl]-2-[3-(2,2-difluoro-1,3-benzodioxol-5-yl)-1H-pyrazol-1-yl]pyridine-3-carboxamide]
Sel cat. B: Ki(cathepsin B)/Ki(calpain) ratio [1]: ++ (++ means a Ki(cathepsin B)/Ki(calpain) ratio of ≧30) | Sel cat. L: Ki(cathepsin L)/Ki(calpain) ratio [2]: ++ (++ means a Ki(cathepsin L)/Ki(calpain) ratio of ≧50) | Sel cat. K: Ki(cathepsin K)/Ki(calpain) ratio [3]: + (+ means 10≦Ki(cathepsin K)/Ki(calpain)<30) | Sel cat. S: Ki(cathepsin S)/Ki(calpain) ratio [4]: ++ (++ means a Ki(cathepsin S)/Ki(calpain) ratio of ≧100)
